A value given as a limit tells only on which side of the number the result lay.

For data set [1], the system named is SW480 cell line. In words: Cell metabolism of phenolic compounds (UHPLC-HR-MS analysis of cell media). The data set is classed as in vitro ADME, Human. Particulars: for Concentration of substrate in cell medium: initial 50 μmol/L. The protocol:
(§1) To analyze the metabolism of phenolic compounds by Caco-2 and SW480 cells, the cell culture media were withdrawn after 0, 24, 48 and 72 h of incubation. Phenolic compounds were extracted from the culture media by following the procedure reported in Sala et al.. Briefly, 100 μL of cold methanol was mixed with 100 μL of cell media and vortexed for 1 min. The mixture was then centrifuged at 10,000× g (4 °C, 5 min) and the supernatant was injected, after appropriate dilution, in an ultra-high-performance liquid chromatography high-resolution mass spectrometry system (UHPLC-HR-MS).
(§2) The HR-MS system consisted of a UHPLC Ultimate 3000 separation module, equipped with a C18 column (Acquity UPLC HSS C18 reversed phase, 2.1 × 100 mm, 1.8 μm particle size, Waters, Milan, Italy) and coupled with a Q Exactive Hybrid Quadrupole-Orbitrap Mass Spectrometer (Thermo Scientific, San Jose, CA, USA). Mobile phases consisted of a mixture of water containing formic acid (0.1%) (mobile phase A) and acetonitrile containing formic acid (0.1%) (mobile phase B). The gradient began at 1% B, reaching 40% B over 20 min. To wash the column, the mobile phase B concentration was raised to 99% over 6 min and kept at 99% for 3 min before returning to the initial conditions. The MS and MS/MS conditions are fully described in Martini et al..
(§3) Quantification was carried out by building external calibration curves with the available standard compounds.

Experiment in data set [2]: as above
The data set is classed as in vitro ADME, Human. Particulars: human, SW480 cells; SW480, 72 h. The protocol: as §1, §2, §3

The test system of data set [3] is Caco-2 cell line. Kind of data set: in vitro. The data set is classed as in vitro ADME. Particulars: human, 50 μmol/L. As to the method: as §1, §2, §3
The next data set can be described thus: in vitro. The data set is classed as in vitro ADME. Particulars: human. The protocol: as §1, §2, §3
In data set [4] the test system is SW480 cell line. Kind of data set: Anti-proliferative assay (MTS cell proliferation assay). The data set is classed as cell-based, Human. As to conditions: for IC50: maximum tested concentration 200 μmol/L. As to the method: (§4) Human colon cancer Caco-2 and SW480 cell lines were cultured and grown as previously reported. […] Incubation was carried out for 24, 48 and 72 h. Data were compared with a control solution containing 0.5% DMSO in cell medium and representing 100% proliferation. In addition, six different mixes were prepared to simulate the simultaneous presence of parent phenolic compounds and metabolites by mimicking the possible human inter-individual variability in colon metabolism of phenolic compounds. Two sets of mixes were prepared to consider the colon metabolism of quercetins and chlorogenic acids. […] For each set of mixtures (QUE and CGA mixtures), three different mixes were formulated. One set of mixes mimicked the low-producers metabotype and contained 90% parent compounds and 10% metabolites (mixes QUE-LP and CGA-LP). Another set of mixes was prepared to simulate the high-producers metabotype and contained 10% parent compounds and 90% metabolites (mixes QUE-HP and CGA-HP). Finally, a third set of mixes was prepared with equimolar amounts of all the compounds (mixes QUE-EQ and CGA-EQ). […] Cell proliferation was assessed by the MTS assay as previously described. […] The IC50 values were calculated through non-linear regression analysis by plotting the base-10 logarithm of the phenolic compound concentration vs. the percentage of inhibition.

Data set [5] deals with Caco-2 cell line. The description is as above. As to conditions: for IC50: maximum tested concentration 200 μmol/L. The data set is classed as cell-based, Human. The protocol: as §4
For data set [6] the following is noted: cited from earlier work; for Maximum value in human fecal water: after raspberry supplementation, ref 49 (Gill et al.).
The subject of a further data set is SW480 cells. In words: Cell cycle analysis by flow cytometry. The data set is classed as cell-based, Human. As to conditions: 72 h, concentration equal to the IC50 value, vs control. The protocol:
Cell cycle analysis was carried out in both Caco-2 and SW480 cell lines as previously reported by Nicoletti et al.. Cells were seeded in 6-well plates at a density of 4000 and 8000 cells/cm^2 for Caco-2 and SW480, respectively.
After 72 h of incubation, the cells were washed with PBS, detached from the 6-well plates with 500 μL of trypsin and resuspended in 1000 μL of medium. Subsequently, they were centrifuged at 3500 rpm for 5 min. After removing the supernatant, the pellet was resuspended with 400 μL of Nicoletti’s solution (sodium citrate 0.1%, Triton X-100 0.1% and 20 μg/mL propidium iodide). After 15 min of incubation at 4 °C in the dark, cell cycle analysis was performed with an Epics XL MCL flow cytometer (Beckman Coulter, Brea, CA, USA).
The data were compared with a control solution containing 0.5% DMSO in the cell medium.
For orientation: A flow cytometer gives signals particle by particle.

[7] abbreviates: Homo sapiens, SW480, 72 h of incubation.
Setting [8] is: Homo sapiens, Caco-2, 24 h of incubation.
The mark [9] stands for this setting: Homo sapiens, Caco-2, 48 h of incubation.
The mark [10] stands for this setting: Homo sapiens, Caco-2, 72 h of incubation.
Where [11] appears, read: no dietary restriction or supplementation, ref 47 (Jenner et al.).

One may read the inhibition as the change of the read-out against control, counted positive when it falls. The IC50 is the concentration at which inhibition is half-maximal. Lower therefore signals greater potency in that assay. On to `O=C(O)CCc1cccc(O)c1` [3-(3′-Hydroxyphenyl)propanoic acid, 3-(3′-hydroxyphenyl)propanoic acid], for which the “Concentration of substrate in cell medium” value (“Concentration of substrate” for short) was 52.74 ± 0.44 µM in the data set on SW480 cell line [1] (SW480, 24 h); 50.70 ± 0.11 µM in the data set on SW480 cell line [1] (SW480, 48 h); 49.95 ± 0.37 µM in the data set with SW480 cell line [1] (SW480, 72 h); 45.51 ± 0.41 µM with Caco-2 cell line [3] (24 h); 46.27 ± 0.58 µM with Caco-2 cell line [3] (48 h); 46.28 ± 0.76 µM in the data set on Caco-2 cell line [3] (72 h). In addition, the recovery at 72 h (in data set [2]; in “in vitro”) was over 80% throughout. In addition, the inhibition at 100 µM with SW480 cell line [4] (Homo sapiens, SW480, 100 μmol/L, 72 h, read-out: Percentage of inhibition of SW480 growth) was determined as 13.3%. The IC50 in the data set on SW480 cell line [4] (setting [7]), in the data set on Caco-2 cell line [5] (setting [8]), with Caco-2 cell line [5] (setting [9]) and in the data set on Caco-2 cell line [5] (setting [10]) was over 200 µM throughout. Further, the “Maximum value in human fecal water” value in data set [6] was 1810 µmol/L. For the same molecule, the “Concentration in human fecal water” value in data set [6] (no dietary restriction or supplementation, ref 46 (Karlsson et al.)) was 61 ± 34 µM. Also, in data set [6] (setting [11]), the “Mean concentration in human fecal water” value was 68 ± 93 µM. Besides, the “Range of concentration in human fecal water” value in data set [6] (setting [11]) is 0.72 to 209 µmol/L.

For `O=C(O)Cc1ccc(O)c(O)c1` [3-(3′,4′-Dihydroxyphenyl)acetic acid, 3-(3′,4′-dihydroxyphenyl)acetic acid], the “Concentration of substrate” value with SW480 cell line [1] (SW480, 24 h) was 21.62 ± 0.48 µM; with SW480 cell line [1] (SW480, 48 h), 15.84 ± 0.09 µM; in the data set with SW480 cell line [1] (SW480, 72 h), 10.30 ± 0.36 µM. Also, the half-inhibitory concentration (IC50) in the data set on SW480 cell line [4] (Homo sapiens, SW480, 48 h of incubation) was over 200 µM; in the data set on SW480 cell line [4] (setting [7]), 92.2 ± 6.9 µM; in the data set on Caco-2 cell line [5] (setting [8]) it was 79.5 ± 1.4 µM; in the data set with Caco-2 cell line [5] (setting [9]) it was 14.7 ± 0.8 µM; with Caco-2 cell line [5] (setting [10]), 3 ± 0.1 µM. The “Maximum value in human fecal water” value in data set [6] is 442 µmol/L.

Take `O=C(/C=C/c1ccc(O)c(O)c1)O[C@@H]1C[C@](O)(C(=O)O)C[C@@H](O)[C@H]1O` [5-O-Caffeoylquinic acid, 5-O-caffeoylquinic acid]: the “Concentration of substrate” value worked out at 16.76 ± 0.01 µM in the data set on SW480 cell line [1] (SW480, 24 h, listed as 5-O-Caffeoylquinic acid trans); 17.52 ± 0.08 µM in the data set with SW480 cell line [1] (SW480, 48 h, listed as 5-O-Caffeoylquinic acid trans); 13.96 ± 0.03 µM with SW480 cell line [1] (SW480, 72 h, listed as 5-O-Caffeoylquinic acid trans). Further, the “Concentration of newly formed metabolite” value in the data set on SW480 cell line [1] (SW480, 24 h, substrate 3,5-di-O-Caffeoylquinic acid 50 μmol/L, listed as 5-O-Caffeoylquinic acid trans) is 0.08 ± 0.01 µM; in the data set with SW480 cell line [1] (SW480, 24 h, substrate 3-O-Caffeoylquinic acid trans 50 μmol/L, listed as 5-O-Caffeoylquinic acid trans), 4.95 ± 0.04 µM; in the data set on SW480 cell line [1] (SW480, 48 h, substrate 3-O-Caffeoylquinic acid trans 50 μmol/L, listed as 5-O-Caffeoylquinic acid trans) it was 7.37 ± 0.07 µM; in the data set on SW480 cell line [1] (SW480, 72 h, substrate 3,5-di-O-Caffeoylquinic acid 50 μmol/L, listed as 5-O-Caffeoylquinic acid trans), 0.29 ± 0.01 µM; with SW480 cell line [1] (SW480, 72 h, substrate 3-O-Caffeoylquinic acid trans 50 μmol/L, listed as 5-O-Caffeoylquinic acid trans) it was 11.32 ± 0.43 µM. The “Percentage of inhibition of SW480 growth” value in the data set on SW480 cell line [4] (100 μmol/L, 72 h) was determined as 14.7%. The half-inhibitory concentration (IC50) in the data set with SW480 cell line [4] (SW480, 48 h of incubation) was over 200 µM; with SW480 cell line [4] (SW480, 72 h of incubation), over 200 µM.

`O=C(/C=C/c1ccc(O)c(O)c1)O[C@@H]1C[C@](O)(C(=O)O)C[C@@H](O)[C@H]1O` [3-O-Caffeoylquinic acid, 3-O-caffeoylquinic acid]: the “Concentration of substrate” value amounted to 23.34 ± 0.07 µM in the data set with SW480 cell line [1] (SW480, 24 h, listed as 3-O-Caffeoylquinic acid trans); 19.54 ± 0.07 µM with SW480 cell line [1] (SW480, 48 h, listed as 3-O-Caffeoylquinic acid trans); 19.83 ± 0.05 µM in the data set on SW480 cell line [1] (SW480, 72 h, listed as 3-O-Caffeoylquinic acid trans). For the same molecule, the “Concentration of newly formed metabolite” value in the data set with SW480 cell line [1] (SW480, 24 h, substrate 3,5-di-O-Caffeoylquinic acid 50 μmol/L, listed as 3-O-Caffeoylquinic acid trans) came out at 0.09 ± 0.01 µM; in the data set on SW480 cell line [1] (SW480, 48 h, substrate 3,5-di-O-Caffeoylquinic acid 50 μmol/L, listed as 3-O-Caffeoylquinic acid trans) it was 0.13 ± 0.01 µM; in the data set on SW480 cell line [1] (SW480, 48 h, substrate 5-O-Caffeoylquinic acid trans 50 μmol/L, listed as 3-O-Caffeoylquinic acid trans), 5.14 ± 0.07 µM; with SW480 cell line [1] (SW480, 72 h, substrate 5-O-Caffeoylquinic acid trans 50 μmol/L, listed as 3-O-Caffeoylquinic acid trans), 5.55 ± 0.09 µM. In the data set with SW480 cell line [4] (100 μmol/L, 72 h), the “Percentage of inhibition of SW480 growth” value was 29.6%. The IC50 with SW480 cell line [4] (SW480, 48 h of incubation) was over 200 µM; in the data set on SW480 cell line [4] (SW480, 72 h of incubation), over 200 µM.

Consider `O=c1c(O)c(-c2ccc(O[C@@H]3O[C@H](CO)[C@@H](O)[C@H](O)[C@H]3O)c(O)c2)oc2cc(O)cc(O)c12` [Quercetin-4′-O-glucoside, quercetin-4′-O-glucoside], for which the “Concentration of substrate” value in the data set on SW480 cell line [1] (SW480, 24 h) turned out to be 2.98 ± 0.07 µM; with SW480 cell line [1] (SW480, 48 h), 0.07 ± 0.00 µM; in the data set on SW480 cell line [1] (SW480, 72 h), 0.01 ± 0.00 µM. In addition, in the data set with SW480 cell line [4] (SW480), the “Decrease in IC50 value from 48 to 72 h” value is 1.4 fold. The IC50 in the data set with SW480 cell line [4] (SW480, 48 h of incubation) was 144 ± 6.6 µM; in the data set on SW480 cell line [4] (SW480, 72 h of incubation), 102 ± 5.3 µM; with Caco-2 cell line [5] (Caco-2, 48 h of incubation), over 200 µM; with Caco-2 cell line [5] (Caco-2, 72 h of incubation), over 200 µM. Further, in the data set with SW480 cells, the “Increase in the number of SW480 cells in the S phase” value was 2.5 times.

With `O=C(/C=C/c1ccc(O)c(O)c1)OC1CC(O)(C(=O)O)CC(OC(=O)/C=C/c2ccc(O)c(O)c2)C1O` (stereo not drawn) [3,5-di-O-Caffeoylquinic acid, 3,5-di-O-caffeoylquinic acid], the “Concentration of substrate” value with SW480 cell line [1] (SW480, 24 h) was 7.13 ± 0.13 µM; in the data set on SW480 cell line [1] (SW480, 48 h) it was 5.41 ± 0.07 µM; in the data set with SW480 cell line [1] (SW480, 72 h), 6.17 ± 0.05 µM. The “Percentage of inhibition of SW480 growth” value in the data set with SW480 cell line [4] (100 μmol/L, 72 h) is reported as 10.9%. Further, the IC50 is over 200 µM with SW480 cell line [4] (SW480, 48 h of incubation); over 200 µM in the data set with SW480 cell line [4] (SW480, 72 h of incubation); over 200 µM with Caco-2 cell line [5] (Caco-2, 24 h of incubation); 27.5 ± 1 µM in the data set with Caco-2 cell line [5] (Caco-2, 48 h of incubation); 8.8 ± 0.2 µM in the data set on Caco-2 cell line [5] (Caco-2, 72 h of incubation). Also, the “Inhibition of Caco-2 growth” value with Caco-2 cell line [5] (100 μmol/L, 72 h) is reported as “almost complete inhibition”.

These data come from paper PMC10418599, “Quercetins, Chlorogenic Acids and Their Colon Metabolites Inhibit Colon Cancer Cell Proliferation at Physiologically Relevant Concentrations” (International Journal of Molecular Sciences, 2023).
